We go through 33 molecules from PMC4850841 (Journal of medicinal chemistry, 2013).

The target in one assay is GluN1/GluN2A (Rattus norvegicus, UniProt Q00959). In words: Two electrode voltage clamp recordings, Xenopus laevis oocytes. Format: cell-based. Particulars: 100 µM glutamate, 30 µM glycine. A general note: Two-electrode voltage clamp is typically applied to oocytes expressing channels or transporters.
A further assay addresses GluN1/GluN2B (Rattus norvegicus, UniProt Q00960). The description is as above. Format: cell-based. The note with it: 100 µM glutamate, 30 µM glycine.
A further assay deals with GluK2 (Rattus norvegicus, UniProt P42260). Described as above. Format: cell-based. Particulars: co-applied with 100 µM glutamate.
A further assay concerns the target GluA1 (Rattus norvegicus, UniProt P19490). Described as above. Format: cell-based. Particulars: co-applied with 100 µM glutamate.
Assay [1] relates to GluN2C/D-containing NMDA receptors. In words: Potentiation of NMDA receptors, results stated jointly for both subtypes. Format: cell-based, rat.
A further assay deals with GluN1/GluN2C (Rattus norvegicus, UniProt Q00961). In words: Two electrode voltage clamp recordings, Xenopus laevis oocytes. Format: cell-based. The note with it: for activity at GluN1/GluN2C: 100 µM glutamate, 30 µM glycine.
Chain of GluN1/GluN2C (Q00961 20-1237, other chains not shown): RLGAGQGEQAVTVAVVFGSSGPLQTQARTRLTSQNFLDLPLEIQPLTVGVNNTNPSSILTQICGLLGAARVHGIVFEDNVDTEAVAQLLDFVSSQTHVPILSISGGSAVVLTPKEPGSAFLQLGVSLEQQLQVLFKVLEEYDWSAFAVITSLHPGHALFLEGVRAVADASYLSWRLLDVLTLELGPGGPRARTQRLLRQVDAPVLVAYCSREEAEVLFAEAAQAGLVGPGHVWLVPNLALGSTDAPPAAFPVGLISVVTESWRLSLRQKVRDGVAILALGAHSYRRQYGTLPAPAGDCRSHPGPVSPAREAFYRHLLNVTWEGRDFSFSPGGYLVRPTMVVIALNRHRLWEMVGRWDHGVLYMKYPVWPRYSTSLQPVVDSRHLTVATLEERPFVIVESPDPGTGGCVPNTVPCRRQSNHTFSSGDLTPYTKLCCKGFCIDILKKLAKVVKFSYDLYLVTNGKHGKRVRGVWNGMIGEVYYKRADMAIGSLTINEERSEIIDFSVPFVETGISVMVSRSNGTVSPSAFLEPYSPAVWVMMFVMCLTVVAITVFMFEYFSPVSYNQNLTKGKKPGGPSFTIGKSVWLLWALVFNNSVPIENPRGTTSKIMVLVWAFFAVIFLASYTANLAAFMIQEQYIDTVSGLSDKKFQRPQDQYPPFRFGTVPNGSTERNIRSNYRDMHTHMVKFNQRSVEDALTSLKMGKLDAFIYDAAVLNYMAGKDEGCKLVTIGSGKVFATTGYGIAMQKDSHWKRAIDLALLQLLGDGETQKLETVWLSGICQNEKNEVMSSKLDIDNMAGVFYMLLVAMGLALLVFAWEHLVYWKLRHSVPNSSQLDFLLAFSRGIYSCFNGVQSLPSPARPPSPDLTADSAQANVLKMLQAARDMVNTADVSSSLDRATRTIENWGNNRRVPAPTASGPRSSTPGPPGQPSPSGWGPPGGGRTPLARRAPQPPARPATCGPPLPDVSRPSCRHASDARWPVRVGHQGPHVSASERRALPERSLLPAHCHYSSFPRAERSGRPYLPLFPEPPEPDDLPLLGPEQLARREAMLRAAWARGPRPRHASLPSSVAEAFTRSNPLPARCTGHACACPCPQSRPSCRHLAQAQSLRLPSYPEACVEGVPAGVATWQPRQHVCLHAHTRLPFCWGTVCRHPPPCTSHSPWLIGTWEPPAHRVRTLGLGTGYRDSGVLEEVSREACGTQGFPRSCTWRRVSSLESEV
Another assay concerns the target GluN1/GluN2D (Rattus norvegicus, UniProt Q62645). Described as above. The note with it: for activity at GluN1/GluN2D: 100 µM glutamate, 30 µM glycine. Format: cell-based.
Where [2] appears, read: 10 µM compound co-applied with 100 µM glutamate and 30 µM glycine.

Chain of GluA1 (P19490 19-907): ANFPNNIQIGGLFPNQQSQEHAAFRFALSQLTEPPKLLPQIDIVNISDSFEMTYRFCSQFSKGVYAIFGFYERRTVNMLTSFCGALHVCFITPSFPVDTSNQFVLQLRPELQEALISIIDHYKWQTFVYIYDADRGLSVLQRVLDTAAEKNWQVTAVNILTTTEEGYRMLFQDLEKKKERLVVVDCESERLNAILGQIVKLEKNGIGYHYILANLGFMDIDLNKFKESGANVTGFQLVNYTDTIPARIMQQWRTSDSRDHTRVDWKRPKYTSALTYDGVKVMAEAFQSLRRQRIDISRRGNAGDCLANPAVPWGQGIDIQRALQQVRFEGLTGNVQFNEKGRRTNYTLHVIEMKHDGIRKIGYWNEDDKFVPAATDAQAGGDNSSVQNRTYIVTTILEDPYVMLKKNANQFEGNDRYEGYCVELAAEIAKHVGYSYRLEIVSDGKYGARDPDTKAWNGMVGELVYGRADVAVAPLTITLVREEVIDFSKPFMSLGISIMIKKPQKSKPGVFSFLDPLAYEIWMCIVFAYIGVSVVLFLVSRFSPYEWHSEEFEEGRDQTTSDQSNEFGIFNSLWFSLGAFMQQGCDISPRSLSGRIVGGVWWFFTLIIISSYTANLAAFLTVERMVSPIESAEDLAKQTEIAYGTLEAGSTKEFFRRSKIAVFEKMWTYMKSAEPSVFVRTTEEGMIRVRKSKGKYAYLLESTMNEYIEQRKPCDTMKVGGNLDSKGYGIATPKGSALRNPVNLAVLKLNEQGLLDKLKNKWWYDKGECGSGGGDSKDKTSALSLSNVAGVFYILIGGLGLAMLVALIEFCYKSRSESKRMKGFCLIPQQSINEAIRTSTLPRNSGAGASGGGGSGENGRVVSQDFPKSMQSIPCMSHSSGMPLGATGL
Chain of GluN1/GluN2B (Q00960 27-1482, other chains not shown): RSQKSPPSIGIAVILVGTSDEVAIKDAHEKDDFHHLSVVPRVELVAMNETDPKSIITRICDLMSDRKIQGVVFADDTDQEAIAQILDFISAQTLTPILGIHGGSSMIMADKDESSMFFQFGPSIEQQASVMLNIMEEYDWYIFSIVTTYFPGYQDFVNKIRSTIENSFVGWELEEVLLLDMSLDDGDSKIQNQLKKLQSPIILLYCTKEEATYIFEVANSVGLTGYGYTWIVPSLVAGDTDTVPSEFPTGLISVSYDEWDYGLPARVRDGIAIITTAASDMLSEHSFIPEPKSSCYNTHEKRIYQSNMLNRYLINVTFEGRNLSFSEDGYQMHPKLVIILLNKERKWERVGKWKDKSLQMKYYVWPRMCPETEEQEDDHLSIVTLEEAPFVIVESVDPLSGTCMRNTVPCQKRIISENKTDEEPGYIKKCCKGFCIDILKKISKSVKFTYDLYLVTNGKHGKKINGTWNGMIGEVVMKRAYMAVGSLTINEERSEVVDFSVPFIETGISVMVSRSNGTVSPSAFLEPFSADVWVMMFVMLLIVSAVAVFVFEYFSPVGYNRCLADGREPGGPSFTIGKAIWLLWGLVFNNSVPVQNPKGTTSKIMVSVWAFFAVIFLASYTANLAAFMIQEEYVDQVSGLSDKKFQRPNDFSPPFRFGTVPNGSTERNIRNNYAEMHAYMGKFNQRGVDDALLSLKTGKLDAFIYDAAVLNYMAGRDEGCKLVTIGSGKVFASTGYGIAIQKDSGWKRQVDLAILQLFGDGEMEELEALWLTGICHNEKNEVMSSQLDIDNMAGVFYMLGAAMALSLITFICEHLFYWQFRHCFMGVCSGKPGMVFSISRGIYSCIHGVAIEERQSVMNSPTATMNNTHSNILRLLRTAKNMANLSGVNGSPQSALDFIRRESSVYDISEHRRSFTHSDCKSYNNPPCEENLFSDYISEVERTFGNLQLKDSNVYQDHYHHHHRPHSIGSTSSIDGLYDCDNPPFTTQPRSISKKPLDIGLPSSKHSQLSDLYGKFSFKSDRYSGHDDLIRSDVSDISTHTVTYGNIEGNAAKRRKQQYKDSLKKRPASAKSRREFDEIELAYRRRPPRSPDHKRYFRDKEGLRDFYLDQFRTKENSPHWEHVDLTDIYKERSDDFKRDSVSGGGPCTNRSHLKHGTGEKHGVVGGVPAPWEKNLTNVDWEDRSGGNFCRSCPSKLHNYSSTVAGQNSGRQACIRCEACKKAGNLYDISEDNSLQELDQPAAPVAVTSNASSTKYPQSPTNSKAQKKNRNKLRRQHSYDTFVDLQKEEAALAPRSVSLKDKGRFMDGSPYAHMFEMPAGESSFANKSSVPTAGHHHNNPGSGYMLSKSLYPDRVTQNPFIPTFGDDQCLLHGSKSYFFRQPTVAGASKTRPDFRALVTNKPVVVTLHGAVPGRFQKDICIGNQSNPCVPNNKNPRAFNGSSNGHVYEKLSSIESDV
Chain of GluN1/GluN2A (Q00959 23-1464, other chains not shown): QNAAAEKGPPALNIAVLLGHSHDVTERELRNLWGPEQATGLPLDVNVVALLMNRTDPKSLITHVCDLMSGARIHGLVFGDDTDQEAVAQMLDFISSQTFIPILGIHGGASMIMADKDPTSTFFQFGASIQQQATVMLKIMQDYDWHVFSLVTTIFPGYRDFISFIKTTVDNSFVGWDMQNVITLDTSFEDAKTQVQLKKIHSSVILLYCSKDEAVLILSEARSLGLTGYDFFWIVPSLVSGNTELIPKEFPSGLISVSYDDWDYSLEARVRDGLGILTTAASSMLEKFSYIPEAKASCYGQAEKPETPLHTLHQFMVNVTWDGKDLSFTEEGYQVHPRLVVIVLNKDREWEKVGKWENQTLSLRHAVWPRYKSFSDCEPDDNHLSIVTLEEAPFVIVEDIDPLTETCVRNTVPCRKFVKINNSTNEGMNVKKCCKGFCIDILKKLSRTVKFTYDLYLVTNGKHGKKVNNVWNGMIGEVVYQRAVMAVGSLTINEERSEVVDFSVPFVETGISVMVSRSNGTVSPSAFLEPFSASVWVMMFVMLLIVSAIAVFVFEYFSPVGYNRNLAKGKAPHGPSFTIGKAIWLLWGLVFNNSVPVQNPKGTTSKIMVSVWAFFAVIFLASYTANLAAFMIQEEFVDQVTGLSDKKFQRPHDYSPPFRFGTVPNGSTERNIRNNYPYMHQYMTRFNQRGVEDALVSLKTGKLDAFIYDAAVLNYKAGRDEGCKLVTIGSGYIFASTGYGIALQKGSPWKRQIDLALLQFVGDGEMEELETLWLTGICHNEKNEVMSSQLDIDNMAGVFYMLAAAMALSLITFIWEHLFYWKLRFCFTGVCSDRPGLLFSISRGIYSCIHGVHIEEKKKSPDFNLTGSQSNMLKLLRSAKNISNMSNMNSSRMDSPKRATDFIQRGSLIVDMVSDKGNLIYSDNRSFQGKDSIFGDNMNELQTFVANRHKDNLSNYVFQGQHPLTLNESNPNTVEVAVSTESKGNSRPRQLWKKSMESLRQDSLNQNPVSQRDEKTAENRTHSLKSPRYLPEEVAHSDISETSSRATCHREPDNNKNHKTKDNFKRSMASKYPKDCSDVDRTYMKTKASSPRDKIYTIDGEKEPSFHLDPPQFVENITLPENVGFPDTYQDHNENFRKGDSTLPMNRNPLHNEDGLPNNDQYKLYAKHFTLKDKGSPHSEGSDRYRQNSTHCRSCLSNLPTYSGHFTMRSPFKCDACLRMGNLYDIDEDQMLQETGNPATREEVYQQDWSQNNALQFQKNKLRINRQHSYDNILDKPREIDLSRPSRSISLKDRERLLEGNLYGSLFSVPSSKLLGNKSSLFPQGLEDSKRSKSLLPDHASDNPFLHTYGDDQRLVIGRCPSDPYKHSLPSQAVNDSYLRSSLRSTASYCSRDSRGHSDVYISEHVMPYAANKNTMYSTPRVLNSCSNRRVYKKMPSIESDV

Regarding `COc1ccc(OC[C@@H]2c3cc(OC)c(OC)cc3CCN2C(=O)c2cccc(Cl)c2)cc1` [2-S, (S)-(3-chlorophenyl)(6,7-dimethoxy-1-((4-methoxyphenoxy)methyl)-3,4-dihydroisoquinolin-2(1H)-yl)methanone], the “effect on GluN1/GluN2A responses” value on GluN1/GluN2A is “no effect”. Moreover, the “effect on GluN1/GluN2B responses” value on GluN1/GluN2B is “no effect”. As for `COc1ccc(OCC2c3cc(OC)c(OC)cc3CCN2C(=O)c2ccccc2)cc1` (stereo not drawn) [compound 1, (6,7-dimethoxy-1-((4-methoxyphenoxy)methyl)-3,4-dihydroisoquinolin-2(1H)-yl)(phenyl)methanone], the “effect on GluK2-mediated currents” value on GluK2 is reported as “no effect”. In addition, the “effect on homomeric GluA1 responses” value at GluA1 was “no effects”. The “enhancement of response of GluN2C/D-containing NMDA receptors” value in assay [1] (maximally effective concentrations of glutamate and glycine) stood at 1.5 fold. Besides, in assay [1] (without co-agonists), the “agonist activity on their own” value was “no agonist activity”.

On to `COc1cc2c(cc1OC)CN(C(=O)c1cccc(Cl)c1)CC2` [compound 6, (3-chlorophenyl)(6,7-dimethoxy-3,4-dihydroisoquinolin-2(1H)-yl)methanone], for which, on GluN1/GluN2A, the “effect on GluN1/GluN2A responses” value was “inactive”. The “activity at GluN1/GluN2C” value at GluN1/GluN2C is “inactive”. The “activity at GluN1/GluN2D” value on GluN1/GluN2D is “inactive”. The “effect on GluN1/GluN2B responses” value at GluN1/GluN2B was “inactive”. `COc1cc2c(cc1OC)CN(C(=O)c1cccc(Br)c1)CC2` [compound 7, (3-bromophenyl)(6,7-dimethoxy-3,4-dihydroisoquinolin-2(1H)-yl)methanone]: on GluN1/GluN2A, the “effect on GluN1/GluN2A responses” value is “inactive”. Further, the “activity at GluN1/GluN2C” value at GluN1/GluN2C is “inactive”. The “activity at GluN1/GluN2D” value on GluN1/GluN2D was “inactive”. On GluN1/GluN2B, the “effect on GluN1/GluN2B responses” value was “inactive”. With `COc1ccc(OCC2c3cc(OC)c(OC)cc3CCN2C(=O)c2cc(Cl)cc(Cl)c2)cc1` (stereo not drawn) [compound 87, (3,5-dichlorophenyl)(6,7-dimethoxy-1-((4-methoxyphenoxy)methyl)-3,4-dihydroisoquinolin-2(1H)-yl)methanone], the “effect on homomeric GluA1 responses” value at GluA1 was “no effects”.

In the case of `COc1ccc(OCC2c3cc(OC)c(OC)cc3CCN2C(=O)c2cccc(CCl)c2)cc1` (stereo not drawn) [compound 96, (3-(chloromethyl)phenyl)(6,7-dimethoxy-1-((4-methoxyphenoxy)methyl)-3,4-dihydroisoquinolin-2(1H)-yl)methanone], at GluA1, the “effect on homomeric GluA1 responses” value is “no effects”.

On to `COc1ccc(OCC2c3cc(OC)c(OC)cc3CCN2C(=O)c2cccc(C#N)c2)cc1` (stereo not drawn) [compound 98, 3-(6,7-dimethoxy-1-((4-methoxyphenoxy)methyl)-1,2,3,4-tetrahydroisoquinoline-2-carbonyl)benzonitrile], for which, on GluA1, the “effect on homomeric GluA1 responses” value is “no effects”. Consider `COc1ccc(OCC2c3cc4c(cc3CCN2C(=O)c2cccc(Cl)c2)OCO4)cc1` (stereo not drawn) [compound 111, (3-chlorophenyl)(5-((4-methoxyphenoxy)methyl)-7,8-dihydro-[1,3]dioxolo[4,5-g]isoquinolin-6(5H)-yl)methanone], for which the “effect on homomeric GluA1 responses” value at GluA1 is “no effects”. Turning to `COc1ccc(OCC2c3ccc(OC)cc3CCN2C(=O)c2cccc(Cl)c2)cc1` (stereo not drawn) [compound 117, (3-chlorophenyl)(6-methoxy-1-((4-methoxyphenoxy)methyl)-3,4-dihydroisoquinolin-2(1H)-yl)methanone], on GluA1, the “effect on homomeric GluA1 responses” value was “no effects”. As for `COc1ccc(OCC2c3ccc(OC)cc3CCN2C(=O)c2cccc(Br)c2)cc1` (stereo not drawn) [compound 118, (3-bromophenyl)(6-methoxy-1-((4-methoxyphenoxy)methyl)-3,4-dihydroisoquinolin-2(1H)-yl)methanone], the “effect on homomeric GluA1 responses” value on GluA1 is “no effects”. In the case of `COc1cc2c(cc1OC)C(COc1ccc(N)cc1)N(C(=O)c1cccc(Cl)c1)CC2` (stereo not drawn) [compound 132, ((1-((4-aminophenoxy)methyl)-6,7-dimethoxy-3,4-dihydroisoquinolin-2(1H)-yl)(3-chlorophenyl)methanone)], the “activity on GluN2C- or GluN2D-containing receptors” value in assay [1] was “no detectable activity”. On to `COc1cc2c(cc1OC)C(COc1ccc(N)cc1)N(C(=O)c1cccc(Br)c1)CC2` (stereo not drawn) [compound 133, ((1-((4-aminophenoxy)methyl)-6,7-dimethoxy-3,4-dihydroisoquinolin-2(1H)-yl)(3-bromophenyl)methanone)], for which, in assay [1], the “activity on GluN2C- or GluN2D-containing receptors” value is “no detectable activity”. As for `COc1ccc(OCC2c3cc(OC)c(OC)cc3CCN2C(=O)c2ccc3ccccc3c2)cc1` (stereo not drawn) [compound 138, (6,7-dimethoxy-1-((4-methoxyphenoxy)methyl)-3,4-dihydroisoquinolin-2(1H)-yl)(naphthalen-2-yl)methanone], the “effect on homomeric GluA1 responses” value on GluA1 is given as “no effects”.

Regarding `COc1ccc(OCC2c3cc(OC)c(OC)cc3CCN2C(=O)CN2CCOCC2)cc1` (stereo not drawn) [compound 140, 1-(6,7-dimethoxy-1-((4-methoxyphenoxy)methyl)-3,4-dihydroisoquinolin-2(1H)-yl)-2-morpholinoethanone], the “effect on homomeric GluA1 responses” value on GluA1 is recorded as “no effects”. Regarding `COc1ccc(OCC2c3cc(OC)c(OC)cc3CCN2Cc2ccccc2)cc1` (stereo not drawn) [compound 141, 2-benzyl-6,7-dimethoxy-1-((4-methoxyphenoxy)methyl)-1,2,3,4-tetrahydroisoquinoline], the “activity on GluN2C- or GluN2D-containing receptors” value in assay [1] is recorded as “eliminated all activity”.

For `COc1ccc(/C=C/C2c3cc(OC)c(OC)cc3CCN2C(=O)c2ccccc2)cc1` (stereo not drawn) [compound 155, (E)-(6,7-dimethoxy-1-(4-methoxystyryl)-3,4-dihydroisoquinolin-2(1H)-yl)(phenyl)methanone], the “effect on homomeric GluA1 responses” value at GluA1 is listed as “no effects”. For the molecule `COc1ccc(/C=C/C2c3cc(OC)c(OC)cc3CCN2C(=O)c2cccc(Br)c2)cc1` (stereo not drawn) [compound 157, (E)-(3-bromophenyl)(6,7-dimethoxy-1-(4-methoxystyryl)-3,4-dihydroisoquinolin-2(1H)-yl)methanone], the “effect on homomeric GluA1 responses” value at GluA1 is reported as “no effects”.

With `COc1ccc(/C=C/C2c3ccc(OC)cc3CCN2C(=O)c2cccc(Cl)c2)cc1` (stereo not drawn) [compound 158, (E)-(3-chlorophenyl)(6-methoxy-1-(4-methoxystyryl)-3,4-dihydroisoquinolin-2(1H)-yl)methanone], the “effect on homomeric GluA1 responses” value on GluA1 is “no effects”. Turning to `COc1ccc(/C=C/C2c3ccc(OC)cc3CCN2C(=O)c2cccc(Br)c2)cc1` (stereo not drawn) [compound 159, (E)-(3-bromophenyl)(6-methoxy-1-(4-methoxystyryl)-3,4-dihydroisoquinolin-2(1H)-yl)methanone], the “effect on homomeric GluA1 responses” value at GluA1 is “no effects”. For the molecule `COc1ccc(CCC2c3cc(OC)c(OC)cc3CCN2C(=O)c2cccc(Cl)c2)cc1` (stereo not drawn) [compound 161, (3-chlorophenyl)(6,7-dimethoxy-1-(4-methoxyphenethyl)-3,4-dihydroisoquinolin-2(1H)-yl)methanone], the “effect on homomeric GluA1 responses” value on GluA1 is given as “no effects”. The same measure, in the same setting: as for `COc1ccc(CCC2c3cc(OC)c(OC)cc3CCN2C(=O)c2cccc(Br)c2)cc1` (stereo not drawn) [compound 162, (3-bromophenyl)(6,7-dimethoxy-1-(4-methoxyphenethyl)-3,4-dihydroisoquinolin-2(1H)-yl)methanone], the entry is “no effects”. Take `COc1ccc(OCC2c3cc(OC)c(OC)cc3CCN2C(=O)c2cccc(Br)c2)cc1` (stereo not drawn) [compound 190]: the “effect on GluK2-mediated currents” value on GluK2 is “no effect”. The “effect on homomeric GluA1 responses” value on GluA1 is “no effects”. As for `COc1ccc(OCC2c3cc(OC)c(OC)cc3CCN2C(=O)c2cccc(F)c2)cc1` (stereo not drawn) [compound 197], the “effect on GluK2-mediated currents” value at GluK2 is given as “no effect”. Further, the “effect on homomeric GluA1 responses” value at GluA1 is recorded as “no effects”. `COc1ccc(OCC2c3cc(OC)c(OC)cc3CCN2C(=O)c2cccs2)cc1` (stereo not drawn) [compound 203]: on GluN1/GluN2C, the “activity at GluN1/GluN2C” value is given as “weak activity”. In addition, the “activity at GluN1/GluN2D” value on GluN1/GluN2D is listed as “no or minimal potentiating effects”. For the molecule `COC(=O)c1ccc(OCC2c3cc(OC)c(OC)cc3CCN2C(=O)c2cccc(Br)c2)cc1` (stereo not drawn) [compound 207], the “activity at GluN1/GluN2C” value at GluN1/GluN2C is on record as “weakly active”. Regarding `COc1ccc(OCC2c3cc(OC)c(OC)cc3CCN2C(=S)Nc2ccccc2)cc1` (stereo not drawn) [compound 211], the “activity on GluN2C- or GluN2D-containing receptors” value in assay [1] is reported as “loss of activity”.

Consider `COc1ccc(OCC2c3cc(OC)c(OC)cc3CCN2C(=S)Nc2cccc(Cl)c2)cc1` (stereo not drawn) [compound 212], for which the “activity on GluN2C- or GluN2D-containing receptors” value in assay [1] was “loss of activity”. For the molecule `COc1ccc(OCC2c3cc(OC)c(OC)cc3CCN2C(=S)Nc2cccc(F)c2)cc1` (stereo not drawn) [compound 213], the “activity on GluN2C- or GluN2D-containing receptors” value in assay [1] is “loss of activity”. Regarding `COc1ccc(OCC2c3cc(OC)c(OC)cc3CCN2C(=S)Nc2cccc(Br)c2)cc1` (stereo not drawn) [compound 214], the “activity on GluN2C- or GluN2D-containing receptors” value in assay [1] is on record as “loss of activity”.

As to `COc1ccc(OCC2c3cc(OC)c(OC)cc3CCN2C(=S)Nc2cccc(C)c2)cc1` (stereo not drawn) [compound 215], the “activity on GluN2C- or GluN2D-containing receptors” value in assay [1] was “weak potentiating activity”. Consider `COc1ccc(OCC2c3cc(OC)c(OC)cc3CCN2S(=O)(=O)c2ccccc2)cc1` (stereo not drawn) [compound 216], for which the “activity on GluN2C- or GluN2D-containing receptors” value in assay [1] was “eliminated all activity”.

With `COc1ccc(OCC2c3cc(OC)c(OC)cc3CCN2S(=O)(=O)c2cccc(Cl)c2)cc1` (stereo not drawn) [compound 217], the “activity on GluN2C- or GluN2D-containing receptors” value in assay [1] was “eliminated all activity”. With “(1-((4-(benzyloxy)phenoxy)methyl)-6,7-dimethoxy-3,4-dihydroisoquinolin-2(1H)-yl)(3-chlorophenyl)methanone [compound 109]”, on GluN1/GluN2C (setting [2]), the “I10 µM / ICONTROL (mean ± SEM, %) GluN2C” value amounted to 93 ± 1.6%. For the same molecule, on GluN1/GluN2D (setting [2]), the “I10 µM / ICONTROL (mean ± SEM, %) GluN2D” value is recorded as 93 ± 2.5%. For the same molecule, the “activity on GluN2C- or GluN2D-containing receptors” value in assay [1] is reported as “no detectable activity”.
